Data reported in article PMC7821884, “BRAF inhibition protects against hearing loss in mice” (Science Advances, 2020).

Legend:
[1] = test system: P3-P4 FVB mouse cochlear explants; set-up: method as in PMID 29514916, PMID 9303151; details: identical P3 FVB explant model; read-out: IC50, protection from cisplatin in explants; cited from earlier work
[2] = set-up: method as in PMID 25894725, PMID 26655654; details: cited from earlier work
[3] = cited from earlier work
[4] = test system: P3-P4 FVB mouse cochlear explants; details: 150 μM, 24 hours
Method: Mouse cochlear explants are widely recognized as an alternative to in vivo cochlear models and pragmatic for focused drug screening ([37]). […] Medium-alone, drug-alone, and cisplatin-alone treatments were used as controls.
P3-P4 FVB mouse cochleae were dissected and maintained in culture on filter inserts in six-well plates with 1 ml of growth medium DMEM (12430-054,Gibco Life Technologies), with 1% FBS (16000-044, Gibco Life Technologies), B-27 supplement (200 μl/500 ml; 17504-44, Gibco Life Technologies), N-2 supplement (100 μl/500 ml; 17502-048, Gibco Life Technologies), and ampicillin (50 μg/ml; A5354-10ML, Sigma-Aldrich) both inside and outside the filter (Millicell, PICM03050, Millipore). […] Cochleae were imaged by confocal microscopy, two 160-μm regions from middle turns were photographed, and the number of intact HCs was counted. Two to five independent cochleae were tested for each experimental condition.

[5] = set-up: method as in PMID 25665007, PMID 25058905, PMID 23044998; details: cisplatin chemotherapy; cited from earlier work
P42 FVB mice = assay: Cisplatin-induced hearing loss in adult mice (ABR, OHC counts, pERK); details: cisplatin 30 mg/kg i.p., alone or combined with dabrafenib
Method: As described in Fig. 4A, baseline auditory brainstem response (ABR) thresholds for P42 FVB mice were established 1 week before experimental procedures. […] Animals were allowed 21 days after cisplatin injection to recover, and final ABR thresholds were recorded.
Ten milligrams of cisplatin (479306, Sigma-Aldrich) powder was dissolved in 10 ml of sterile saline (0.9% NaCl) at 37°C for 40 to 60 min. Cisplatin was administered to FVB mice at 30 mg/kg via intraperitoneal injection. One day before cisplatin injection, mice received 1 ml of saline by subcutaneous injection. To ameliorate dehydration after cisplatin injection, 1 ml of warm saline was injected twice per day for at least 7 days or until body weight started to recover. The cages of cisplatin-treated mice were placed on the heating pad for at least 7 days or until body weight began to recover. Fresh mush food was daily given for at least 7 days.
Compounds were dissolved in a mixture of 10% DMSO, 5% Tween 80 (P1754, Sigma-Aldrich), 40% PEG-E-300 (91462-1KG, Sigma-Aldrich), and 45% 0.9% saline.
ABR in mice was measured for left ears as described previously with minor modifications ([13], [34]). In brief, ABR waveforms were recorded in a sound booth (Industrial Acoustic Company) by using subdermal needles positioned in the skull, below the pinna, and at the base of the tail, and the responses were fed into a low-impedance Medusa digital biological amplifier system (RA4L; TDT; 20-dB gain). At each frequency, the stimulus intensity was reduced from 90 to 0 dB in 10-dB steps to determine the threshold decibel SPL when the electrical response was just above the noise floor. ABR waveforms were averaged in response to 500 tone bursts. The recorded signals were filtered by a band-pass filter from 300 Hz to 3 kHz. Pretreatment ABR recordings of adult FVB mice (aged 6 weeks) were acquired 1 week before all treatments, and posttreatment ABR measurements were recorded 21 days after cisplatin treatment or 14 days after noise exposure. ABR threshold was determined by the presence of any of three or more of the five waveform peaks. […] All thresholds and shifts were determined independently by two experimenters for each mouse. Individual ABR wave 1 amplitudes were measured as the difference between the positive peak and the following negative trough.
Cochleae from adult mice were prepared and examined as described previously ([85], [86]). All images were acquired with a confocal microscope (LSM 700 or 710, Zeiss). Samples were stained with phalloidin (A12379 or A12380, Invitrogen) or with antibodies for other markers. The following primary antibodies were used: anti–myosin VI (1:400; 25-6791; Proteus Bioscience), anti–myosin VIIa ([…];138-1-s, Developmental Studies Hybridoma Bank), anti-Tuj1 (1:250; 801201, BioLegend), anti-pERK (1:400; 9101S, Cell Signaling Technology), or anti-Ctbp2 (1:500; 612044, BD Transduction). Anti-rabbit Alexa Fluor 488 (1:400; A11034) and anti-mouse Alexa Fluor 647 (1:400; A31571) secondary antibodies were purchased from Invitrogen. ProLong gold antifade reagent with 4′,6-diamidino-2-phenylindole (P36941, Invitrogen) was used to counterstain nuclei.

HEI-OC1 cell line = assay: Caspase-Glo 3/7 activity screen for protection from cisplatin-induced cell death; format: cell-based, mouse; details: HEI-OC1, 50 μM cisplatin, 22 hours
Method: An unbiased screen for compounds protective against cisplatin ototoxicity ([12], [13]) was conducted using the immortalized inner ear cell line HEI-OC1 derived from mouse cochlea ([14]). One hundred sixty-two unique small-molecule kinase-specific inhibitors were screened in dose-response mode for protection from 50 μM cisplatin. A caspase-3/7 activity assay was selected to measure apoptosis using a protocol that quantifies a luminescent product derived from the cleavage of caspase-3/7 substrate (Caspase-Glo 3/7 reagent). One hundred percent luminescence was defined by cells treated with cisplatin alone, and 0% was defined by untreated cells (Fig. 1A, fig. S1, table S1, and dataset in the Supplementary Materials).
In these screens, caspase-3 cleavage was chosen as the end point indicating cisplatin-induced apoptosis, because it allowed the inhibition of cell death to be monitored at the level of any molecular target upstream of caspase-3 cleavage in the HEI-OC1 cell line. Cells were plated at a previously optimized concentration of 1600 cells per well in medium without γ-interferon to limit proliferation and tested against 50 μM cisplatin based on a previous dose–response curve. Tested compounds were dissolved in DMSO before addition to medium with a final DMSO concentration of <0.5%. The screens are described in detail in our previous publications ([12], [13]). […]

SMILES: O=C1Cc2c([nH]c3ccc(Br)cc23)-c2ccccc2N1 [kenpaullone]
- IC50 [1]: 0.2 µM

SMILES: O=c1c2ccccc2[se]n1-c1ccccc1 [ebselen]
- IC50 [1]: 10.8 µM

SMILES: C[C@@H]1C[C@H]2[C@@H]3CCC4=CC(=O)C=C[C@]4(C)[C@@]3(F)[C@@H](O)C[C@]2(C)[C@@]1(O)C(=O)CO [dexamethasone]
- IC50 [1]: > 0.25 µM
- effectiveness in treating noise ototoxicity [2]: only partially effective

SMILES: O=S([O-])([O-])=S.[Na+].[Na+] [STS, sodium thiosulfate]
- lowering of incidence of hearing loss ([3]; children with localized standard-risk hepatoblastoma, 6 hours after cisplatin chemotherapy): 48%
- survival of treated patients with disseminated tumors [3]: lowered survival rate

SMILES: CSCC[C@@H](N)C(=O)O [D-methionine]
- IC50 [1]: 98.4 µM

SMILES: N.N.[Cl][Pt][Cl] [cisplatin]
- OHCs that died with cisplatin [4]: ~40%
- patients with cancer with hearing loss [5]: 40 to 60%
- survival rate of mice (P42 FVB mice): 50%

SMILES: Cc1ccc(C(=O)Cn2c3c(sc2=N)CCCC3)cc1 [Pifithrin-α]
- IC50 (HEI-OC1 cell line): 7.7 µM
